Assay [1] relates to murine erythroleukemia (MEL) cells. Briefly: Erythroid differentiation of MEL cells. As to conditions: HMBA‐induced MEL cells, supplementation to the culture. The format is cell-based. The method, then:
Information of the cell lines is listed in Table S1 (Supporting Information), including their origin and culture conditions. All cell lines were cultured at 37 °C, 5% CO2 incubator. MDA‐MB‐231 (LM1), HepG2, Hep3B, and HCT116 cell lines were authenticated with short tandem repeat markers based on ATCC information. All cell lines tested negative for mycoplasma contamination. Transient downregulation of the gene of interest was conducted by siRNA transfection using Lipofectamine 2000 (Thermo Fisher, 11668019) according to the manufacturer's instructions. Information about siRNAs is provided in Table S2 (Supporting Information). Stable cell lines were established by transfecting cells using Effectene reagent (Qiagen, 301425), followed by selection of cell clones in the presence of 1 µg mL^−1 puromycin (Sigma–Aldrich, P8833). The establishment of cell lines was confirmed by WB or RT‐qPCR. For doxycycline‐inducible gene expression regulation, cell lines were incubated in the presence of 1 µg mL^−1 doxycycline (Sigma–Aldrich, D9891) for 2–3 days. To promote sphere formation of the cell lines, each well of the tissue culture dish was coated with 10% poly 2‐hydroxyethyl methacrylate (polyHEMA). An appropriate number of cells per well were seeded in serum‐free DMEM/F12 (HyClone, SH30023.01) supplemented with B27, 20 ng mL^−1 bFGF, and 20 ng mL^−1 EGF. For erythroid terminal differentiation experiments, differentiation was assessed by hemoglobin staining using a 0.2% (w/v) tetramethylbenzidine solution (Sigma–Aldrich, T0440) in 0.6% hydrogen peroxide, 3% acetic acid for 10 min in dark condition. Benzidine‐positive or negative cell numbers were counted under the inverted microscope BX50 (Olympus) at 200 × magnification. […] After each synchronization, cells were fixed at 4‐h intervals for 24 h with ACP52C treatment, and the cell cycle was analyzed by Propidium Iodide (PI) staining or intracellular protein was analyzed by immunofluorescence. […] This development period was repeated four times for one round, after which GI50 concentrations were re‐assessed in each resistant cell line. […]

The test system of a further assay is Hep3B. Briefly: Hep3B CDX mouse model. The format is in vivo. The method, then: Animal experiments were conducted in accordance with ethical guidelines, and all protocols were approved by the Institutional Animal Care and Use Committee under Hanyang University (approval numbers, 2014‐0016A, 2018‐0049A, 2018‐0207A, and 2019‐0169A), Chung‐Ang University (approval number, 2015‐00022), Chungbuk University (approval number, CBNUA‐1072‐17‐02), and Konkuk University (approval number, KU17130). To establish xenograft mice models, Hep3B, A431, U343, and PC9 cells were subcutaneously injected into the flank of Balb/c nude mice. For the MDA‐MB‐231 (LM1) cell line, it was implanted into the mammary fat pad of immunodeficient mice (NPG mice). Once tumors were successfully established, the animals were randomly divided into a control (vehicle) group and an experimental (drug) group. When the tumor volume reached 100 cubic millimeters, either saline or an appropriate concentration of drugs was administrated into mice via tail vein every 3 or 5 days for appropriate duration. Tumor volume was calculated using the formula of length × width^2)/2. To generate an orthotopic liver cancer mice model, 75 mg kg^−1 (mpk) of DEN was intraperitoneally injected weekly for 3 weeks into C57BL/6 mice, followed by 100 mpk of DEN weekly for the subsequent 3 weeks. After 37 weeks of liver cancer induction, mice received either saline or an appropriate concentration of drugs via the tail vein every 5 days for the designated duration. The in vivo administration amount was determined based on the concentration of ACP52C confirmed at the cellular level, which was 2 µM. Assuming an average mouse weight of 30 grams and considering that ≈5.8% of body weight constitutes blood volume,^[ [49] ^] it was calculated that the blood concentration of ACP52C should be ten times the GI50 concentration in cell culture conditions. […] For ACP52C derivatives, the amount was adjusted to ensure a similar molar quantity of peptide injection, taking their molecular weights into account. For instance, in the case of ACP52CGK, ≈1.67 times the quantity was used compared to ACP52C to achieve an equivalent molar quantity. At the time of sacrifice, major organs and tumors were removed and weighed, and blood was extracted. For histological analysis, major organs and tumors of mice were immediately fixed in 10% formalin neutral buffer solution, dehydrated through a graded series of ethanol treatments, treated with xylene, paraffin embedded, and cut into 4 µm sections. Hematoxylin and eosin (H&E)‐stained tissue sections were analyzed and photographed, and the representative histological images were recorded. Liver nodules in the DEN orthotopic liver cancer model were estimated by measuring the ratio of tumor areas over entire liver tissues in the tissue section using an Image J (version 1.51) software at 40× magnification. Complete blood count (CBC) analysis was conducted using a Hematology analyzer (scil Vet ABC) from the extracted blood.

A further assay has as its target T1, CP2c (Mus musculus, UniProt Q9ERA0).
T1 construct: extracts from iMEL cells (day 2); endogenous in cells; host or cells: nuclear extract of HMBA-induced MEL (iMEL) cells, day 2
Briefly: DNA‐IP assay of CP2c DNA binding. The format is biochemical. The following applies: 0–3 µM peptide, concentration‐dependent. The method, then: DNA‐IP assay was performed essentially as described previously.^[ [14] ^] Each of the oligonucleotides was mixed and annealed in the TEN buffer. For the radio‐labeling of the DNA probe, the annealed DNA was incubated with a mixture of dATP, dGTP, dTTP, [α^32P]‐dCTP, and Klenow enzyme in reaction buffer (5 mM NaCl, 1 mM Tris HCl, 1 mM MgCl2, and 0.1 mM DTT) for 30 min at 25 °C, and stopped by incubation with EDTA (10 mM final) for 20 min at 75 °C. The radio‐labeled DNA probe was purified by applying the reaction mixture to ProbeQuant G‐50 micro columns (GE healthcare, GE28‐9034‐08). Whole extracts prepared from transfecting 293T cells or purified GST fused CP2c proteins (wildtype and point mutants) were incubated with a [α^32P]‐labeled DNA probe in binding buffer (4% glycerol, 10 mM Tris‐HCl, pH 7.4, 1 mM DTT, 1 mM EDTA, and 0.1% NP‐40) for 15 min at room temperature. Then 0–3 µM of peptides (Pep #5, Pep #8, Pep #5‐1, Pep #5‐2, and Pep #5‐2C) were added to the DNA‐protein mixture, and the mixtures were incubated for 15 min at room temperature (peptide sequences are listed in Table S3, Supporting Information). For IP, precleared extracts were incubated overnight at 4 °C with 1 µg of the following primary antibodies (CP2c, CP2b, and PIAS1). […] The radioactivity of the eluted probe was measured by scintillation counting.

The mark [2] stands for this setting: intravenous injection at three‐day intervals, Sorafenib orally once daily as positive control.

Where no end group is shown, it is not given here.

T1 sequence (Q9ERA0 whole entry): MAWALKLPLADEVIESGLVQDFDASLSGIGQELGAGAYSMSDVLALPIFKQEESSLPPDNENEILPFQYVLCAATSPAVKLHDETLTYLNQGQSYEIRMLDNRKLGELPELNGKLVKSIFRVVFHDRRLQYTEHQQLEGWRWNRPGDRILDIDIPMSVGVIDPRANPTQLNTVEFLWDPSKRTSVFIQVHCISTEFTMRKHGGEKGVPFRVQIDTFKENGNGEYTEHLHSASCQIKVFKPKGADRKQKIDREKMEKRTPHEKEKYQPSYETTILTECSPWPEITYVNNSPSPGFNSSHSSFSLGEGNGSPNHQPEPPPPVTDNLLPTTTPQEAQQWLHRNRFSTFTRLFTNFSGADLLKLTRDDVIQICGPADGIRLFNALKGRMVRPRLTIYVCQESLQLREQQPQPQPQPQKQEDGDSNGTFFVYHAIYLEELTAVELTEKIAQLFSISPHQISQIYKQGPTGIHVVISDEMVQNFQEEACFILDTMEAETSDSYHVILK

In the case of Ac-HERRESNYPQRPCRGDKGPDC-NH2 [Pep #5C], in assay [1], the “inhibition of erythroid differentiation” value was “efficiently inhibited erythroid differentiation”.

On to “Ac-K(E-pal)K-GGNYPQRPCRGDKGPDC-NH2 [ACP52CG, palmitic acid linked to lysine at the N‐terminus of ACP52C]”, for which, in the assay with Hep3B (setting [2]), the “anti‐tumor activity” value is reported as “decrease in anti‐tumor activity, resembling Sorafenib”.

For “Ac-K(EGFLG-pal)K-GGNYPQRPCRGDKGPDC-NH2 [ACP52CK, ACP52C with enzyme‐cleavable linker GFLG to palmitic acid]”, in the assay with Hep3B (setting [2]), the “anti‐tumor activity” value is reported as “activity similar to that of Sorafenib”.

“Ac-NYPQRPGG-K(E-pal)-GGCRGDKGPDC-NH2 [ACP52GK, E‐pal attached via αE COO‐ to lysine between ACP52 and iRGD]”: in the assay on Hep3B (setting [2]), the “anti‐tumor activity” value is listed as “lower anti‐tumor activity compared to ACP52C”.

For “DHA-GGNYPQRPCRGDKGPDC-NH2 [DHA‐ACP52C, DHA, an unsaturated fatty acid, conjugated at the N‐terminus of ACP52C]”, the entries for the “anti‐tumor activity” value in the assay on Hep3B (administered at five‐day intervals) and with Hep3B (setting [2]) were “noticeably higher activity than ACP52C” and “effectively demonstrated anti‐tumor activity”, respectively.

Consider HERRES [Pep #5‐1], for which the “inhibition of DNA binding activity of CP2c” value on CP2c is “no activity”.

The record behind these values is publication PMC10667816, “A Cell‐Penetrant Peptide Disrupting the Transcription Factor CP2c Complexes Induces Cancer‐Specific Synthetic Lethality” (Advanced Science, 2023).
